Experimental data: US20110034990A1, “BIOCORRODIBLE IMPLANT WITH ACTIVE COATING” (priority 2009, published 2011)

Excerpt: It has been discovered that squalene is a particularly suitable substance for use in some invention embodiments. […] Thus, for example, lycopene and ubichinon are toxic in concentrations of 10 μmol/l. Squalene, on the other hand, is not toxic, even in concentrations of 100 μmol/l.

Molecule | concentration at which the substance is toxic [µM]
CC(C)=CCC/C(C)=C/C=C/C(C)=C/C=C/C(C)=C/C=C/C=C(C)/C=C/C=C(C)/C=C/C=C(\C)CCC=C(C)C [lycopene] | 10
ubichinon | 10
CC(C)=CCCC(C)=CCCC(C)=CCCC=C(C)CCC=C(C)CCC=C(C)C [Squalene, 2,6,10,15,19,23-hexamethyl-2,6,10,14,18,22-tetracosahexaene] | > 100
